Experimental data published in US20040063681A1, “Methods for using gold (III) complexes as anti-tumor and anti-HIV agents” (priority 2002, published 2004).
Where “and” joins values, the source holds several entries; their conditions need not be identical. Equal entries are not always repeated.

Tests used:
[1] = molecular target: T1, HIV-1 reverse transcriptase (Human immunodeficiency virus type 1 group M subtype B, UniProt P04585); assay: HIV-1 reverse transcriptase activity, ELISA method; assay type: biochemical; conditions: for HIV-1 RT inhibition: drug concentration fixed at 6 μM; for HIV-1 RT inhibition activity compared with the corresponding metal complex (1j, 1k): free-base porphyrins
T1 construct: treatment of HIV-1 RT in Lysis buffer (2 ng, 128.7 μL) with Complex 1j
Description: HIV-1 reverse transcriptase activities were measured by an ELISA method (see Eberle et al, J. Virol. Methods, 40:347-356 (1992) performed by incubating the enzyme with digoxigenin-labeled deoxyuridin-5′-triphosphate (dUTP) and the biotin-labeled analogue during reverse transcription starting from the template/primer hybrid poly(A)•oligo(dT)15. After reverse transcription, the newly synthesized DNA was immobilized onto streptavidin-coated ELISA wells, and the incorporation of the dioxigenin-labeled dUTP was assayed by chemiluminescence method. For example, treatment of HIV-1 RT in Lysis buffer (2 ng, 128.7 μL) with Complex 1j (1.3 μL of […] stock solution) dissolved in TBS at 37° C. produced significant RT activity inhibition (˜95%) after 30 min incubation.

[2] = Electrochemical measurements (cyclic voltammetry); assay type: physicochemical; conditions: for Couple I (first reduction couple) / Couple II (second reduction couple): cyclic voltammetry, 0.1 M nBu4NPF6, glassy carbon, vs Cp2Fe^+/0; for ΔE1o (E^0Y − E^0H), couple I / ΔE2^0 (E^0Y − E^0H), couple II: relative to Y=H (Complex 1a)
Description: Electrochemical measurements. Electrochemical measurements were performed at room temperature after purging with nitrogen using 0.1 M tetrabutylammonium hexafluorophosphate (TBAP)/acetonitrile as supporting electrolyte. The working electrode was a glassy carbon (Atomergic Chemetal V25, geometric area of 0.35 cm^2) electrode and the counter electrode was platinum gauze. A nonaqueous Ag/AgNO3 (0.1 M in acetonitrile) reference electrode was contained in a separate compartment connected to the test solution via fine sintered glass disks. The ferrocenium/ferrocene couple was used as the internal standard. The redox properties of the gold(III) porphyrin complexes in non-aqueous medium (CH2Cl2 with 0.1 M nBu4NPF6) have been studied by cyclic voltammetry with glassy carbon and platinum as the working and counter electrodes, respectively. […] The effect of para-substitution on the electrochemical potentials has been examined by Hammett correlation analysis.

[3] = test system: Human Promyelocytic Leukemia (HL-60); assay: MTT cytotoxicity, HL-60; assay type: cell-based; conditions: growth inhibition
From the text: (§1) Human promyelocytic leukemia (HL-60), human hepatocellular carcinoma (HepG2), Human cervix epitheloid carcinoma cells (HeLa) and human oral epidermoid carcinoma cells (KB-3-1), were obtained from American Type Culture Collection (ATCC) (Rockville, Md.). The multi-drug-resistant variant KB-V1 cell line was obtained by stepwise selections for vinblastine resistance as described by Shen et al., J. Biol. Chem. 261:7762-7770 (1986)], and was generously provided by Dr Michael Gottesman (NIH, Bethesda, Md.). Human nasopharyngeal carcinoma cells (SUNE1 and its cisplatin resistance variant, CNE1) were derived from poorly differentiated NPC in Chinese patients as described by Gu et al., Chin. J. Cancer 2:270-272 (1983), and were generously provided by Dr S. W. Tsao (The University of Hong Kong, Hong Kong, PRC). Cell culture flasks and 96 well microtitre plates were from Nalge Nunc hit. Culture medium, other medium constituents and phosphate buffered saline (PBS) were obtained from Gibco BRL (Rockville, Md.). Cell Proliferation Kit I (MTT) was purchased from Roche (Mannheim, Germany).
(§2) The anti-cancer activities of the gold(III) porphyrin complexes were evaluated toward some established human cancer cell lines: promyelocytic leukemia (HL-60), hepatocellular carcinoma (HepG2), cervix epitheloid carcinoma (HeLa), epidermoid carcinoma (KB-3-1) and its multi-drug resistant variant (KB-V1), nasopharyngeal carcinoma (SUNE1) and its cisplatin-resistant variant (CNE1). The experiments were carried out by following the MTT procedure (see Mosmann et al., J. Immunol. Methods 65:55-63 (1983). The IC50 values of the gold(III) porphyrin complexes together with that of cisplatin, and KAuCl4 are provided in Table 4a; and the IC50 values of the gold(III) Schiff-base and bis(pyridyl)carboxamide complexes are shown in Table 4b. The cytotoxicity profiles of some selected gold(III) porphyrin complexes toward SUNE1 and its cisplatin-resistant variant CNE1 are also shown in FIG. 7.

[4] = test system: Human Hepatocellular Carcinoma (HepG2); assay: MTT cytotoxicity, HepG2; assay type: cell-based; conditions: growth inhibition
From the text: as §1, §2

[5] = test system: Human Nasopharyngeal Carcinoma (SUNE1); assay: MTT cytotoxicity, SUNE1; assay type: cell-based; conditions: for IC50: MTT, growth inhibition
From the text: (§3) Human promyelocytic leukemia (HL-60), human hepatocellular carcinoma (HepG2), Human cervix epitheloid carcinoma cells (HeLa) and human oral epidermoid carcinoma cells (KB-3-1), were obtained from American Type Culture Collection (ATCC) (Rockville, Md.). […] Cell culture flasks and 96 well microtitre plates were from Nalge Nunc hit. Culture medium, other medium constituents and phosphate buffered saline (PBS) were obtained from Gibco BRL (Rockville, Md.). Cell Proliferation Kit I (MTT) was purchased from Roche (Mannheim, Germany).

[6] = test system: Human Cervix Epitheloid Carcinoma (HeLa); assay: MTT cytotoxicity, HeLa; assay type: cell-based; conditions: for IC50: MTT, growth inhibition
From the text: as §3

[7] = test system: Human Nasopharyngeal Carcinoma (cisplatin resistance, CNE1); assay: MTT cytotoxicity, CNE1; assay type: cell-based; conditions: for IC50: MTT, growth inhibition, cisplatin resistant
From the text: as §3

[8] = test system: Human Oral Epidermoid Carcinoma (KB-3-1); assay: MTT cytotoxicity, KB-3-1; assay type: cell-based; conditions: for IC50: MTT, growth inhibition
From the text: as §3

[9] = test system: Human Oral Epidermoid Carcinoma (multi-drug resistance, KB-V-1); assay: MTT cytotoxicity, KB-V-1; assay type: cell-based; conditions: for IC50: MTT, growth inhibition, multi-drug resistant
From the text: as §1
The anti-cancer activities of the gold(III) porphyrin complexes were evaluated toward some established human cancer cell lines: promyelocytic leukemia (HL-60), hepatocellular carcinoma (HepG2), cervix epitheloid carcinoma (HeLa), epidermoid carcinoma (KB-3-1) and its multi-drug resistant variant (KB-V1), nasopharyngeal carcinoma (SUNE1) and its cisplatin-resistant variant (CNE1).

calf thymus DNA = assay: UV-vis absorption titration with calf thymus DNA; assay type: binding; conditions: for hypochromicity / intrinsic binding constant (Kb): Tris buffer
Description: The calf thymus DNA was purchased from Sigma-Aldrich Chemical Co. and was purified by phenol-chloroform extraction. The DNA was dissolved in buffer (5 mM Tris, 5 mM NaCl, pH 7.2). The concentration (per base pair) of calf thymus DNA was determined spectrophotometrically on the basic of ε260, 13,200 M^−1cm^−1bp.
Absorption Titration. The binding interaction of the gold(III) porphyrins to duplex DNA has been studied by UV-vis spectroscopy.
where [ctDNA] is the concentration of DNA, Δεap═|εA−εB| in which εA=Aobs/[complex], and Δε=|εB−εF|. εB and εF correspond to the extinction coefficient of DNA-bound gold(III) porphyrin and the free gold(III) porphyrins, respectively.
The effect of temperature on the intrinsic binding constants was investigated. Using the van't Hoff equation (2): […]

| SMILES | IC50 [3] | IC50 [4] | IC50 ratio [cisplatin/gold (III) porphyrin complexes] SUNE1 [5] | IC50 [5] | IC50 ratio [cisplatin/gold (III) porphyrin complexes] HeLa [6] | IC50 [6] | IC50 ratio [cisplatin/gold (III) porphyrin complexes] CNE1 [7] | IC50 [7] | IC50 [8] | IC50 [9] | further results |
| --- | --- | --- | --- | --- | --- | --- | --- | --- | --- | --- | --- |
| Cc1cn(C2CC(N=[N+]=[N-])C(CO)O2)c(=O)[nH]c1=O (stereo not drawn) [AZT, 3′-azido-2′,3′-dideoxythymidine] |  |  |  |  |  |  |  |  |  |  | inhibition at 0.008 µM ([1]; AZT 8 nM alone, read-out: HIV-1 RT enzyme inhibition, alone): 17 to 39%; IC50 ([1]; ELISA, mean ± SE of at least three determinations, read-out: IC50 HIV-1 RT): 69 ± 8 nM |
| COc1ccc(-c2c3nc(c(-c4ccc(OC)cc4)c4ccc([n-]4)c(-c4ccc(OC)cc4)c4nc(c(-c5ccc(OC)cc5)c5ccc2[n-]5)C=C4)C=C3)cc1.[Au+3].[Cl-] [Complex 1c] | 880 nM | 760 nM | 18.5 | 680 nM | 17.0 | 660 nM | 53.0 | 770 nM |  |  | Couple I (first reduction couple) [2]: −1.02 V; Couple II (second reduction couple) [2]: −1.51 V; ΔE1o (E^0Y − E^0H), couple I [2]: −0.02 V; ΔE2^0 (E^0Y − E^0H), couple II [2]: −0.02 V |
| Brc1ccc(-c2c3nc(c(-c4ccc(Br)cc4)c4ccc([n-]4)c(-c4ccc(Br)cc4)c4nc(c(-c5ccc(Br)cc5)c5ccc2[n-]5)C=C4)C=C3)cc1.[Au+3].[Cl-] [Complex 1d] | 1120 nM | 1210 nM | 17.0 | 740 nM | 12.6 | 890 nM | 41.6 | 980 nM | 1290 nM | 640 nM | Couple I (first reduction couple) [2]: −0.97 V; Couple II (second reduction couple) [2]: −1.45 V; ΔE1o (E^0Y − E^0H), couple I [2]: +0.03 V; ΔE2^0 (E^0Y − E^0H), couple II [2]: +0.03 V; IC50 ratio [cisplatin/gold (III) porphyrin complexes] KB-3-1 [8]: 10.23; IC50 ratio [cisplatin/gold (III) porphyrin complexes] KB-V1 [9]: 8.96 |
| Clc1ccc(-c2c3nc(c(-c4ccc(Cl)cc4)c4ccc([n-]4)c(-c4ccc(Cl)cc4)c4nc(c(-c5ccc(Cl)cc5)c5ccc2[n-]5)C=C4)C=C3)cc1.[Au+3].[Cl-] [Complex 1e] | 870 nM | 920 nM | 37.1 | 340 nM | 16.2 | 690 nM | 99.5 | 410 nM | 500 nM | 230 nM | Couple I (first reduction couple) [2]: −0.96 V; Couple II (second reduction couple) [2]: −1.44 V; ΔE1o (E^0Y − E^0H), couple I [2]: +0.44 V; ΔE2^0 (E^0Y − E^0H), couple II [2]: +0.44 V; IC50 ratio [cisplatin/gold (III) porphyrin complexes] KB-3-1 [8]: 26.4; IC50 ratio [cisplatin/gold (III) porphyrin complexes] KB-V1 [9]: 20.4 |
| COc1cc(-c2c3nc(c(-c4cc(OC)c(OC)c(OC)c4)c4ccc([n-]4)c(-c4cc(OC)c(OC)c(OC)c4)c4nc(c(-c5cc(OC)c(OC)c(OC)c5)c5ccc2[n-]5)C=C4)C=C3)cc(OC)c1OC.[Au+3].[Cl-] [Complex 1f] | 740 nM | 1830 nM | 18.5 | 680 nM | 16.5 | 680 nM | 55.9 | 730 nM | 870 nM | 710 nM | IC50 ratio [cisplatin/gold (III) porphyrin complexes] KB-3-1 [8]: 15.1; IC50 ratio [cisplatin/gold (III) porphyrin complexes] KB-V1 [9]: 5.62 |
| CCc1c(CC)c2[n]3c1C=c1c(CC)c(CC)c4[n]1[Au]31[n]3c(c(CC)c(CC)c3C=c3c(CC)c(CC)c([n]31)=C2)C=4 [Complex 1h] |  |  |  |  |  |  |  |  |  |  | hypochromicity (calf thymus DNA; 291.4 K): 30.1%; intrinsic binding constant (Kb) (calf thymus DNA; 291.4 K): 4.14 × 10^6 dm^3mol^−1; hypochromicity (calf thymus DNA; 296.8 K): 29.2%; intrinsic binding constant (Kb) (calf thymus DNA; 296.8 K): 2.73 × 10^6 dm^3mol^−1; hypochromicity (calf thymus DNA; 302.2 K): 28.0%; intrinsic binding constant (Kb) (calf thymus DNA; 302.2 K): 1.51 × 10^6 dm^3mol^−1; hypochromicity (calf thymus DNA; 305.5 K): 26.1%; intrinsic binding constant (Kb) (calf thymus DNA; 305.5 K): 1.27 × 10^6 dm^3mol^−1; hypochromicity (calf thymus DNA; 311.2 K): 24.4%; intrinsic binding constant (Kb) (calf thymus DNA; 311.2 K): 0.96 × 10^6 dm^3mol^−1; ΔS° (calf thymus DNA; binding to calf thymus DNA, van't Hoff analysis): −17.3 calmol^−1K^−1 and −17.3 ± 0.7 calmol^−1K^−1; ΔG° (298 K) (calf thymus DNA; binding to calf thymus DNA, van't Hoff analysis, 298 K): −8.2 ± 0.7 |
| N.N.[Cl][Pt][Cl] [Pt(NH3)2Cl2, reference compound] | 16800 nM | 13500 nM |  | 12600 nM |  | 11200 nM |  | 40800 nM | 13200 nM | 10200 nM |  |
| [Au+].[Cl-].c1ccc(P(c2ccccc2)c2ccccc2)cc1 [[(Ph3P)Au^ICl]] |  |  |  |  |  |  |  |  |  |  | HIV-1 RT inhibition [1]: 43% |
| C[n+]1ccc(-c2c3nc(c(-c4cc[n+](C)cc4)c4ccc([nH]4)c(-c4cc[n+](C)cc4)c4nc(c(-c5cc[n+](C)cc5)c5ccc2[nH]5)C=C4)C=C3)cc1 [[H2TMPyP]^4+, Meso-tetrakis(N-methylpyridinium-4-yl)porphyrin] |  |  |  |  |  |  |  |  |  |  | HIV-1 RT inhibition activity compared with the corresponding metal complex (1j, 1k) [1]: substantially lower HIV-1 RT inhibition activities |
| O=S(=O)(O)c1ccc(-c2c3nc(c(-c4ccc(S(=O)(=O)O)cc4)c4ccc([nH]4)c(-c4ccc(S(=O)(=O)O)cc4)c4nc(c(-c5ccc(S(=O)(=O)O)cc5)c5ccc2[nH]5)C=C4)C=C3)cc1 [[H2TPPS]^4−, meso-tetrakis(4-sulfonatophenyl)porphyrin] |  |  |  |  |  |  |  |  |  |  | HIV-1 RT inhibition activity compared with the corresponding metal complex (1j, 1k) [1]: substantially lower HIV-1 RT inhibition activities |
| C[n+]1ccc(-c2c3nc(c(-c4cc[n+](C)cc4)c4ccc([nH]4)c(-c4cc[n+](C)cc4)c4nc(c(-c5cc[n+](C)cc5)c5ccc2[nH]5)C=C4)C=C3)cc1.[Cl-].[Cl-].[Cl-].[Cl-].[Zn] [[Zn^II(TMPyP)]Cl4] |  |  |  |  |  |  |  |  |  |  | HIV-1 RT inhibition [1]: 32% |
| CCCC[N+](CCCC)(CCCC)CCCC.[Au+3].[Cl-].[Cl-].[Cl-].[Cl-] [nBu4N[AuCl4], Tetrabutylammonium tetrachloroaurate, reference compound] | 9710 nM | 11200 nM |  | 9940 nM |  | 8410 nM |  | 11500 nM | 10300 nM |  |  |
